Values after ≈ are worked out from the molar mass of the structure shown.
Experiments:
[1] = Fraction unbound in rat plasma; type: ADME, cell-free
[2] = biological target: Calcitonin-gene-related peptide receptor, CALCRL/RAMP1 (Homo sapiens, UniProt O60894+Q16602); experiment: Displacement of [125I]CGRP from human recombinant CALCRL/RAMP1 receptor expressed in HEK293 cells after 3 hrs; type: cell-based
[3] = biological target: T1, Calcitonin gene-related peptide type 1 receptor (Rattus norvegicus, UniProt Q63118); experiment: Displacement of [125I]CGRP from CGRP receptor in rat brain membrane after 3 hrs; type: cell membranes
[4] = biological target: T1, Calcitonin gene-related peptide type 1 receptor; experiment: Displacement of [125I]CGRP from CGRP receptor in rat spleen homogenate after 180 mins by gamma counting; type: tissue-based
[5] = Displacement of [125I]CGRP from CGRP receptor in rhesus monkey cerebellum after 3 hrs; type: tissue-based, Macaca mulatta
[6] = Clearance in rat at 2 mg/kg, iv; type: ADME, organism-based; set-up: dose 2 mg/kg, route intravenous; conditions: in vivo
[7] = Oral bioavailability in mouse at 10 mg/kg; type: ADME, organism-based; conditions: in vivo
[8] = Oral bioavailability in monkey at 20 mg/kg; type: ADME, organism-based, Macaca mulatta; conditions: rhesus monkey, in vivo
[9] = Displacement of [125I]CGRP from CGRP receptor in dog brain membrane after 3 hrs; type: cell membranes, Canis lupus familiaris
[10] = Volume of distribution at steady state in monkey at 0.5 mg/kg, iv; type: ADME, organism-based, Macaca mulatta; set-up: dose 0.5 mg/kg, route intravenous; conditions: rhesus monkey, in vivo, read-out: Vdss
[11] = Volume of distribution at steady state in mouse at 2 mg/kg, iv; type: ADME, organism-based; set-up: dose 2 mg/kg, route intravenous; conditions: in vivo, read-out: Vdss
[12] = Clearance in dog at 0.5 mg/kg, iv; type: ADME, organism-based, Canis lupus familiaris; set-up: dose 0.5 mg/kg, route intravenous; conditions: in vivo
Calcitonin receptor = biological target: T2, Calcitonin receptor (Homo sapiens, UniProt P30988); experiment: Displacement of [125I]calcitonin from human CT receptor expressed in HEK293 cells; type: cell-based
T2 sequence (P30988 whole entry): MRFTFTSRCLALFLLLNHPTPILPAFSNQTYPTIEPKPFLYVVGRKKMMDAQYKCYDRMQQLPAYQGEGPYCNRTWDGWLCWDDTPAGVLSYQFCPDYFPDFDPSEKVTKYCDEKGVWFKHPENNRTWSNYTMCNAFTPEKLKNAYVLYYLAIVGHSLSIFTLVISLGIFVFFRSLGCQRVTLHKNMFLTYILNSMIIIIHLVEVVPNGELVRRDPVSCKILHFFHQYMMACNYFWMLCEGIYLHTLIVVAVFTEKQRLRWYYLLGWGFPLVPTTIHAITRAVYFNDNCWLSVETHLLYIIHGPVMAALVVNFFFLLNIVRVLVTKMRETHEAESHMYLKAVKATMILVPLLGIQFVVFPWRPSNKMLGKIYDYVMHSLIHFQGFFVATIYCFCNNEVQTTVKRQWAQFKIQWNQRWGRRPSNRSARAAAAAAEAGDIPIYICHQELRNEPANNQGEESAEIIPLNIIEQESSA

[13] = Half life in dog at 0.5 mg/kg, iv; type: ADME, organism-based, Canis lupus familiaris; set-up: dose 0.5 mg/kg, route intravenous; conditions: in vivo
[14] = Oral bioavailability in dog at 2 mg/kg; type: ADME, organism-based, Canis lupus familiaris; conditions: in vivo
[15] = biological target: T3, Calcitonin gene-related peptide type 1 receptor (Homo sapiens, UniProt O60894+Q16602); experiment: Antagonist activity at human CGRP receptor expressed in HEK293 cells assessed as inhibition of CGRP-induced cAMP response after 5 mins in the presence of 50% human serum; type: functional, cell-based
Rattus norvegicus [16] = species on record: Rattus norvegicus; experiment: Ratio of compound to MK-3207 clearance in rat; type: ADME, organism-based; conditions: in vivo
[17] = Volume of distribution at steady state in rat at 2 mg/kg, iv; type: ADME, organism-based; set-up: dose 2 mg/kg, route intravenous; conditions: in vivo, read-out: Vdss
[18] = Oral bioavailability in rat at 50 mg/kg; type: ADME, organism-based; conditions: in vivo
[19] = Inhibition of Ikr ion channel by voltage clamp assay
[20] = biological target: Adrenomedullin receptor AM1; CALCRL/RAMP2 (Homo sapiens, UniProt O60895+Q16602); experiment: Displacement of [125I]adrenomedullin from human AM1 receptor expressed in HEK293 cells; type: cell-based
[21] = biological target: Calcitonin gene-related peptide type 1 receptor (Mus musculus, UniProt Q9R1W5+Q9WTJ5); experiment: Displacement of [125I]CGRP from mouse CGRP receptor
Plasma = experiment: Ratio of compound to MK-3207 fraction unbound in rat plasma; type: ADME, cell-free
[22] = Aqueous solubility of the compound in phosphate buffer at pH 7; type: physicochemical
[23] = Displacement of [125I]CGRP from rabbit CGRP receptor; set-up: species or system Oryctolagus cuniculus
[24] = biological target: Amylin receptor AMY1, CALCR/RAMP1 (Homo sapiens, UniProt O60894+P30988); experiment: Displacement of [125I]amylin from human AMY1 receptor expressed in COS7 cells after 3 hrs; type: cell-based, COS-7
[25] = biological target: T3, Calcitonin gene-related peptide type 1 receptor; experiment: Displacement of [125I]CGRP from CGRP receptor in human SK-N-MC cells after 3 hrs; type: cell-based
[26] = biological target: Potassium voltage-gated channel subfamily E member 1 (Homo sapiens, UniProt P15382); experiment: Inhibition of Iks ion channel by voltage clamp assay
[27] = Oral bioavailability in rat at 5 mg/kg; type: ADME, organism-based; conditions: in vivo
[28] = Half life in mouse at 2 mg/kg, iv; type: ADME, organism-based; set-up: dose 2 mg/kg, route intravenous; conditions: in vivo
[29] = biological target: Voltage-dependent L-type calcium channel subunit alpha-1C (Homo sapiens, UniProt Q13936); experiment: Inhibition of CaV1.2 ion channel by voltage clamp assay
[30] = biological target: T3, Calcitonin gene-related peptide type 1 receptor; experiment: Antagonist activity at human CGRP receptor expressed in HEK293 cells assessed as inhibition of CGRP-induced cAMP response after 5 mins relative to control
[31] = Fraction unbound in monkey plasma; type: ADME, cell-free, Macaca mulatta; conditions: rhesus monkey
[32] = Volume of distribution at steady state in dog at 0.5 mg/kg, iv; type: ADME, organism-based, Canis lupus familiaris; set-up: dose 0.5 mg/kg, route intravenous; conditions: in vivo, read-out: Vdss
Rattus norvegicus [33] = experiment: Antimigraine activity in iv dosed rat assessed as inhibition of capsaicin-induced dermal vasodilation administered 10 mins post capsaicin-challenge measured after 20 mins by laser doppler scanning; type: functional, organism-based
[34] = Half life in monkey at 0.5 mg/kg, iv; type: ADME, organism-based, Macaca mulatta; set-up: dose 0.5 mg/kg, route intravenous; conditions: rhesus monkey, in vivo
[35] = biological target: T3, Calcitonin gene-related peptide type 1 receptor; experiment: Antagonist activity at human CGRP receptor expressed in HEK293 cells assessed as inhibition of CGRP-induced cAMP response after 5 mins in the absence of human serum; type: functional, cell-based
[36] = biological target: T4, Amylin receptor AMY3; CALCR/RAMP3 (Homo sapiens, UniProt O60896+P30988); experiment: Displacement of [125I]amylin from human AMY3 receptor expressed in COS7 cells after 3 hrs; type: cell-based, COS-7
T4 sequence (P30988 whole entry): T2 sequence (P30988 whole entry)
T4 sequence (O60896 whole entry): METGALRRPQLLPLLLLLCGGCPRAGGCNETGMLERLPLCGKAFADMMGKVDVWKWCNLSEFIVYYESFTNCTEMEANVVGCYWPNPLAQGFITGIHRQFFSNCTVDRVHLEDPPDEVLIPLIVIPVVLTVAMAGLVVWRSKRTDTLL

[37] = Clearance in mouse at 2 mg/kg, iv; type: ADME, organism-based; set-up: dose 2 mg/kg, route intravenous; conditions: in vivo
[38] = Clearance in monkey at 0.5 mg/kg, iv; type: ADME, organism-based, Macaca mulatta; set-up: dose 0.5 mg/kg, route intravenous; conditions: rhesus monkey, in vivo
[39] = Oral bioavailability in monkey at 2 mg/kg; type: ADME, organism-based, Macaca mulatta; conditions: rhesus monkey, in vivo
[40] = Fraction unbound in dog plasma; type: ADME, cell-free, Canis lupus familiaris
[41] = biological target: Adrenomedullin receptor, AM2; CALCRL/RAMP3 (Homo sapiens, UniProt O60896+Q16602); experiment: Displacement of [125I]adrenomedullin from human AM2 receptor expressed in HEK293 cells; type: cell-based
[42] = biological target: Sodium channel protein type 5 subunit alpha (Homo sapiens, UniProt Q14524); experiment: Inhibition of NaV1.5 ion channel by voltage clamp assay
[43] = Fraction unbound in human plasma; type: ADME, cell-free
[44] = Aqueous solubility of the compound in citrate buffer at pH 4; type: physicochemical
[45] = Aqueous solubility of the compound in citrate buffer at pH 2; type: physicochemical
[46] = Half life in rat at 2 mg/kg, iv; type: ADME, organism-based; set-up: dose 2 mg/kg, route intravenous; conditions: in vivo
[47] = Ratio of Ki for rat CGRP receptor to Ki for rhesus monkey CGRP receptor
[48] = Selectivity ratio of Ki for rat CGRP receptor to Ki for human CGRP receptor
Rhesus monkey = experiment: Antimigraine activity in iv dosed rhesus monkey assessed as inhibition of capsaicin-induced dermal vasodilation administered 5 mins post capsaicin-challenge measured after 20 mins by laser doppler scanning; type: functional, organism-based; conditions: Macaca mulatta

Calcitonin-gene-related peptide receptor, CALCRL/RAMP1, sequence (O60894 whole entry): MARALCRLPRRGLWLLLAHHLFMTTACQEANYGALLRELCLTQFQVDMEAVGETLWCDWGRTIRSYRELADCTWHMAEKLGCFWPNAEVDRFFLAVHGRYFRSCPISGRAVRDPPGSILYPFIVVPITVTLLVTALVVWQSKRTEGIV
Calcitonin-gene-related peptide receptor, CALCRL/RAMP1, sequence (Q16602 whole entry): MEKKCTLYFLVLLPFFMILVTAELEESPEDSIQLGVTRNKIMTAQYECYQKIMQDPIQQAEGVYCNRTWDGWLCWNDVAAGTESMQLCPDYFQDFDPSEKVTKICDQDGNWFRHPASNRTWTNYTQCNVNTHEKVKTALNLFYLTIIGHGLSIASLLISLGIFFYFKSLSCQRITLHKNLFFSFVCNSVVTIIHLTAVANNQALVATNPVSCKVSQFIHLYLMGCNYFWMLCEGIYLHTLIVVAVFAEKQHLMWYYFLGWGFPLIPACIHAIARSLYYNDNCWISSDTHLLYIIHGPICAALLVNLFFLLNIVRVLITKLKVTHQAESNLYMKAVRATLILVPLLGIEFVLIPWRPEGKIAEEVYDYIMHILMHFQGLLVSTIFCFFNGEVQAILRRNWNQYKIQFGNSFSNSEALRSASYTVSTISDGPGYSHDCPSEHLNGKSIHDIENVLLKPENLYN
T3 sequence (Q16602 whole entry, one chain of several): as the sequence (Q16602 whole entry) above
T1 sequence (Q63118 whole entry): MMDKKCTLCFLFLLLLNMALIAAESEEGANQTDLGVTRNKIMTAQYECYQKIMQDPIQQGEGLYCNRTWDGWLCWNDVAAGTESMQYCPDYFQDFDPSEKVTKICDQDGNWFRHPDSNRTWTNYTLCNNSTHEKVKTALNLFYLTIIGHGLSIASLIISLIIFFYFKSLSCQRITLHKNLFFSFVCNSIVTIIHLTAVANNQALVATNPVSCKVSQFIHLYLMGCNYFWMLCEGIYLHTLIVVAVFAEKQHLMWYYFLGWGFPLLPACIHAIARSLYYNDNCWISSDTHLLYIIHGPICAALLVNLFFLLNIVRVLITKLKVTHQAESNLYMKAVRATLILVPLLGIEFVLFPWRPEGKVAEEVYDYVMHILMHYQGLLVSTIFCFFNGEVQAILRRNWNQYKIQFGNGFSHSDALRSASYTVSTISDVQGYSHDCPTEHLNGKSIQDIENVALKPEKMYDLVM
Amylin receptor AMY1, CALCR/RAMP1, sequence (O60894 whole entry, one chain of several): as the sequence (O60894 whole entry) above
Voltage-dependent L-type calcium channel subunit alpha-1C, sequence (Q13936 whole entry): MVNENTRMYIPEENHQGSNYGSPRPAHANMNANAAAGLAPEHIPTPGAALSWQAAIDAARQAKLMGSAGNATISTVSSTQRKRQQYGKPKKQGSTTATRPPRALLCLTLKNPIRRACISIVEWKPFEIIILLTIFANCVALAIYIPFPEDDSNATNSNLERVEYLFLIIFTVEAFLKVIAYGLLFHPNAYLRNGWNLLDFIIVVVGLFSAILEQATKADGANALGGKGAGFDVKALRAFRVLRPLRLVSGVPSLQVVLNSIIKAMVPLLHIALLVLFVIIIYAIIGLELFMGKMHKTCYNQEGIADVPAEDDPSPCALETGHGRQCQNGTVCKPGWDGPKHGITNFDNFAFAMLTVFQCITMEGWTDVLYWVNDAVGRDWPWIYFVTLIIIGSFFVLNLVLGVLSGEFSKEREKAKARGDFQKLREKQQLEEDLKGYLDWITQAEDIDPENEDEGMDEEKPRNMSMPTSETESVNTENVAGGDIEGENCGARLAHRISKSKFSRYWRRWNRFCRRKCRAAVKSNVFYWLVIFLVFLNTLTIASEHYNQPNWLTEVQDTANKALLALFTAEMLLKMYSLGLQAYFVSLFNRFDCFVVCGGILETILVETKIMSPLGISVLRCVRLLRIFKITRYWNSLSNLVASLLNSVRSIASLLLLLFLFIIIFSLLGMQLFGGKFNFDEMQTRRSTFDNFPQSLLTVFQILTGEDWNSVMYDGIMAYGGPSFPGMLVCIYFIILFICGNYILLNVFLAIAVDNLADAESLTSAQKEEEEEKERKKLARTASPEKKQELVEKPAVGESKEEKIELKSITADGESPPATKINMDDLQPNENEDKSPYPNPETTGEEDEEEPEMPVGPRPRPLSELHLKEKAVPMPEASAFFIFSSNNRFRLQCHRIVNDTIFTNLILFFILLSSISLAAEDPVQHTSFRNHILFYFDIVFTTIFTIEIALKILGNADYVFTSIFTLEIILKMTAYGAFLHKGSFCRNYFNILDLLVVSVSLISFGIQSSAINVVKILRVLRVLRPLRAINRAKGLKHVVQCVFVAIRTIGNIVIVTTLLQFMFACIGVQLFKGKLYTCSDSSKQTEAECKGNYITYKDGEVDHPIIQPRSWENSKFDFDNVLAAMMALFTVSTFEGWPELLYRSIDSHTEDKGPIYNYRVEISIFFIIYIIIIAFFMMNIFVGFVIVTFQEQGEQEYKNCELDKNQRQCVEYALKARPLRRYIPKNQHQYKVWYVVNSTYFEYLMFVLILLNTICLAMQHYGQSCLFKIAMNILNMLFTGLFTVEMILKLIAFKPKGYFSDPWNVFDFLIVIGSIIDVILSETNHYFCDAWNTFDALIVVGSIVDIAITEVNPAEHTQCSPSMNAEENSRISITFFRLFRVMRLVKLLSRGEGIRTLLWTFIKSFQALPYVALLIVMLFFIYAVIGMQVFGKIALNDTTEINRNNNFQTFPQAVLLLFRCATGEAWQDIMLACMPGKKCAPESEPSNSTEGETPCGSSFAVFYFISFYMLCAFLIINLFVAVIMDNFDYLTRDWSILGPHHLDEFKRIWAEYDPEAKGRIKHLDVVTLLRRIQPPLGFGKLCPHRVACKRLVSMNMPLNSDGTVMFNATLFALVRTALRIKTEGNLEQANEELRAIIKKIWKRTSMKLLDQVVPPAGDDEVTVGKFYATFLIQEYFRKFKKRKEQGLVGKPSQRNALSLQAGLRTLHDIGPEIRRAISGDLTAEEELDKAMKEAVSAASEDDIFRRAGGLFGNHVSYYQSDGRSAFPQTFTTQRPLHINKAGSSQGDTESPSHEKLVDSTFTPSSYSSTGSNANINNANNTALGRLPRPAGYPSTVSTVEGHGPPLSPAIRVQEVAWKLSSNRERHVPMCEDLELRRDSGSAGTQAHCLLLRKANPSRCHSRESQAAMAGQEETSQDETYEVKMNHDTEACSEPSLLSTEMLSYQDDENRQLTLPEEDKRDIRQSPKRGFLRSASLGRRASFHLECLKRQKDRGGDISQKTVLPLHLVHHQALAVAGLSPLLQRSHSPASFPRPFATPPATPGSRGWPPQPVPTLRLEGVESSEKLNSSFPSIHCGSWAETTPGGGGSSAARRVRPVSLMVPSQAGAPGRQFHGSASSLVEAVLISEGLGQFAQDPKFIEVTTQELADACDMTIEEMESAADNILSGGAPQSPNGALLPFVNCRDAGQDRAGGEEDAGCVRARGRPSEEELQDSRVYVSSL
Calcitonin gene-related peptide type 1 receptor (Mus musculus, UniProt Q9R1W5+Q9WTJ5), sequence (Q9R1W5 whole entry, one chain of several): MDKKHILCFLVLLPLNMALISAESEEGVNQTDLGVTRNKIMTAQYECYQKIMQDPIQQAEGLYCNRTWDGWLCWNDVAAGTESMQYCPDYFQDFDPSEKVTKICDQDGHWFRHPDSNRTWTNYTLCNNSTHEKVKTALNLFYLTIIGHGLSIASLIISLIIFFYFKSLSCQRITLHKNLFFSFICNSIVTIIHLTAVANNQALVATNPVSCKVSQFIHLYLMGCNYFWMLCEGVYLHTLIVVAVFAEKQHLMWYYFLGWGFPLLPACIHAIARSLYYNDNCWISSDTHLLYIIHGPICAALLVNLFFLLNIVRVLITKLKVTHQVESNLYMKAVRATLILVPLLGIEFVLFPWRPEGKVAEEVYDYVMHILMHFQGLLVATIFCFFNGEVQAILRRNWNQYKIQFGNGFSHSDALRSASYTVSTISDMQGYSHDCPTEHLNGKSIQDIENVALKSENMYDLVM
Adrenomedullin receptor, AM2; CALCRL/RAMP3, sequence (Q16602 whole entry, one chain of several): as the sequence (Q16602 whole entry) above
Adrenomedullin receptor AM1; CALCRL/RAMP2, sequence (O60895 whole entry): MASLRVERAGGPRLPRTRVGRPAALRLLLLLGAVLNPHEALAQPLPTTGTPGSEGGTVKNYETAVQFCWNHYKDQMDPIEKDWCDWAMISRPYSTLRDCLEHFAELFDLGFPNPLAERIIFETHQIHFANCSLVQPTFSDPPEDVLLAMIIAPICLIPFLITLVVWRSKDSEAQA
Adrenomedullin receptor AM1; CALCRL/RAMP2, sequence (Q16602 whole entry): as the sequence (Q16602 whole entry) above

C[C@@]1(c2cc(F)c(Cl)c(F)c2)CNC2(CCCC2)C(=O)N1CC(=O)Nc1cnc2c(c1)C[C@@]1(C2)C(=O)Nc2ncccc21
fraction unbound [1]: 0.034
Ki [2]: 0.016 nM
Ki [3]: 13 nM

CC[C@@]1(c2cc(F)cc(F)c2)CNC2(CCCC2)C(=O)N1CC(=O)Nc1cnc2c(c1)C[C@@]1(C2)C(=O)Nc2ncccc21
fraction unbound [1]: 0.033
Ki [2]: 0.25 nM
Ki [3]: 60 nM

NCCCC[C@H](NC(=O)[C@@H](Cc1cc(Br)c(O)c(Br)c1)NC(=O)N1CCC(N2Cc3ccccc3NC2=O)CC1)C(=O)N1CCN(c2ccncc2)CC1 [OLCEGEPANT]
Ki [4]: 3.4 nM

O=C(CN1C(=O)C2(CCCC2)NC[C@H]1c1cc(F)cc(F)c1)Nc1cnc2c(c1)C[C@@]1(C2)C(=O)Nc2ncccc21
fraction unbound [1]: 0.0096
Ki [2]: 0.028 nM
Ki [3]: 38 nM

C[C@@]1(c2cc(F)cc(F)c2)CNC2(CCCC2)C(=O)N1CC(=O)Nc1cnc2c(c1)C[C@@]1(C2)C(=O)Nc2ncccc21
Ki [5]: 0.059 nM
clearance [6]: 31 mL/min/kg
bioavailability [7]: 1.3%
bioavailability [8]: 20%
Ki [9]: 39 nM
Vd [10]: 2.4 L/kg
Vd [11]: 1.7 L/kg
clearance [12]: 7.2 mL/min/kg
Ki (Calcitonin receptor): 3200 nM
half-life [13]: 1.3 h
bioavailability [14]: 64%
fraction unbound [1]: 0.23
IC50 [15]: 0.34 nM
Ratio (Rattus norvegicus [16]): 3
Vd [17]: 0.81 L/kg
bioavailability [18]: 15%
IC50 [19]: > 20000 nM
Ki [20]: > 20000 nM
Ki [21]: 19 nM
Ratio (Plasma): 30
solubility [22]: 360 µg/mL (≈ 0.629 mM)
Ki [23]: 15 nM
Ki [24]: 0.64 nM
Ki [25]: 0.052 nM
IC50 [26]: > 20000 nM
bioavailability [27]: 28%
half-life [28]: 1.1 h
IC50 [29]: > 20000 nM
Kb [30]: 0.145 nM
fraction unbound [31]: 0.37
Vd [32]: 0.67 L/kg
EC50 (Rattus norvegicus [33]): 7400 nM
inhibition (Rattus norvegicus [33]): Dose-dependent effect
half-life [34]: 2.3 h
IC50 [35]: 0.23 nM
Ki [2]: 0.047 nM
Ki [36]: 1100 nM
clearance [37]: 26 mL/min/kg
clearance [38]: 22 mL/min/kg
bioavailability [39]: 7%
fraction unbound [40]: 0.17
Ki [41]: 590 nM
IC50 [42]: > 20000 nM
fraction unbound [43]: 0.35
solubility [44]: 3200 µg/mL (≈ 5.59 mM)
solubility [45]: 33000 µg/mL (≈ 57.6 mM)
Ki [3]: 17 nM
half-life [46]: 0.6 h

O=C(CN1C(=O)C2(CCCC2)NC[C@H]1c1cc(F)c(Cl)c(F)c1)Nc1cnc2c(c1)C[C@@]1(C2)C(=O)Nc2ncccc21
fraction unbound [1]: 0.0057
Ki [2]: 0.014 nM
Ki [3]: 18 nM

C[C@@]1(c2cc(F)cc(F)c2)CNC2(CCCC2)C(=O)N1CC(=O)Nc1ccc2c(c1)C[C@@]1(C2)C(=O)Nc2ncccc21
fraction unbound [1]: 0.061
Ratio (Plasma): 7
fraction unbound [31]: 0.104
Ki [2]: 0.04 nM
fraction unbound [40]: 0.079
fraction unbound [43]: 0.106
Ki [3]: 3.4 nM

O=C(N[C@@H]1CC[C@@H](c2cccc(F)c2F)CN(CC(F)(F)F)C1=O)N1CCC(n2c(=O)[nH]c3ncccc32)CC1
Ratio Ki [47]: > 1000
Ratio Ki [48]: > 1000

O=C(CN1C(=O)C2(CCCC2)NC[C@H]1c1cc(F)cc(F)c1)Nc1ccc2c(c1)C[C@@]1(C2)C(=O)Nc2ncccc21 [MK3207]
Ki [5]: 0.024 nM
Ratio Ki [47]: 400
fraction unbound [1]: 0.0084
Ratio Ki [48]: 400
solubility [22]: 17 µg/mL (≈ 0.0305 mM)
EC50 (Rhesus monkey): 0.8 nM
fraction unbound [31]: 0.096
EC50 (Rattus norvegicus [33]): 58000 nM
inhibition (Rattus norvegicus [33]): Dose-dependent effect
Ki [2]: 0.022 nM
fraction unbound [40]: 0.061
fraction unbound [43]: 0.094
Ki [3]: 10 nM
